The conditions of series [1]: animal studies and clinical trials; cited from earlier work.
Series [2] deals with T1, rat liver type F6P2kinase (Rattus norvegicus, UniProt P07953).
T1 construct: made in house; host or cells: Escherichia coli
Put plainly: Inhibition by itaconic acid of F6P2kinase activity catalyzing synthesis of F26BP. The series is classed as biochemical. Conditions: 0.5 mM itaconic acid; 0.4 mM F6P, 2 mM ATP, 30° C.; read-out: inhibitory activity on F6P2kinase. Here is the method: The gene for rat liver type F6P2kinase was incorporated into Escherichia coli and expressed. From the E. coli cells, rat liver type F6P2kinase was purified (K. Kitamura et al., J. Biol. Chem., Vol. 264, 9799-9806, 1989). The rat liver type F6P2kinase (1.25 μg) was reacted at 30° C. in a reaction solution containing 100 mM Tris-HCl (pH 7.5), 0.1 mM EDTA, 10 mM MgCl2, 2 mM ATP, 0.4 mM F6P, and 0 to 1.5 mM itaconic acid. After lapses of 2, 4 and 6 minutes, 10 μl of the reaction mixture was transferred into a test tube containing 90 μl of 50 mM NaOH, and heated for 1 minute at 90° C. to terminate the reaction. The amount of the resulting F26BP was measured by a change in absorbance due to oxidation of NADH upon subsequent addition of glycolytic pathway enzymes. That is, 10 μl of the reaction mixture after termination of the reaction was added to 1 ml of a reaction solution containing 50 mM HEPES (pH 7.3), 0.2 mM EDTA, 5 mM MgCl2, 1 mM F6P, 1 mM PPi, 15 mU PPi-F6P phosphotransferase, 0.15 mM NADH, 1 U aldolase, 1 U glycerol-3-phosphate dehydrogenase, and 10 U triose-phosphate isomerase. The amount of F26BP was measured by a decrease in the absorbance at 340 nm (Van Schaftingen et al., Eur. J. Biochem., Vol. 129, 191-195, 1982). The activity that converts the substrate F6P to 1 μmole F26BP over 1 minute at 30° C. is defined as 1 U. The results are shown in FIG. 1.

Series [3] deals with Male SD rats. Put plainly: Evaluation of preventive effect on obesity in rats (3 weeks, itaconic acid in drinking water). Type of series: in vivo, rat. How it is done:
Male SD rats (8-week-old) were individually reared, commencing immediately after arrival. After a week of acclimatization, the animals were divided into a control group and an itaconic acid group (8 animals per group), and reared for 3 weeks, with feed and drinking water of the itaconic acid concentration shown in [Table 1] being given ad lib.
During the 3-week rearing period, the body weight, the feed intake, and the water intake were measured daily or every other day. On the final day, the animal was placed on a 17-hour fast, the blood was sampled, and the plasma was analyzed for blood glucose, hepatic function, and lipid-related parameters. Furthermore, the weight of the livers, kidneys, fat around the kidneys, and fat around the intestines was measured. The experiments were conducted in groups of 8 rats each, and the results were indicated as mean values±standard deviations. The test for a significant difference was performed by the analysis of variance of data, followed by Student t-test. The level of significance was set at 0.05.
The plasma collected at completion of the experiments was measured for various biological parameters. […] The experiments were conducted in groups of 8 rats each, and the results were indicated as mean values±standard deviations. The test for a significant difference was performed by the analysis of variance of data, followed by Student t-test. The level of significance was set at 0.05.

Series [4] deals with Male SD rats. Put plainly: Evaluation of the suppressive effect on blood glucose elevation in rats (glucose challenge). The series is classed as in vivo, rat. How it is done: Male SD rats (weighing 300 to 400 g), operated on for blood sampling cannulation into the femoral artery, were used. After an overnight fast, itaconic acid (500 mg/kg) was orally administered. Thirty minutes later, glucose (4 g/kg) was ingested, and changes in blood glucose were observed. In the control group, purified water, free of itaconic acid, was orally administered in the same volume. Experiments were conducted in groups of 4 rats each, and the results were indicated as mean values±standard deviations. The test for a significant difference was performed by the analysis of variance of data, followed by Student t-test. Differences were taken as significant when p values were less than 0.05 (*p<0.05, **p<0.01).

Series [5] concerns streptozotocin-induced diabetes rats (male Wistar rats). Put plainly: Evaluation of suppressive effect on blood glucose elevation in streptozotocin-induced diabetes rats. Type of series: in vivo, rat. The source says:
Streptozotocin is an antibiotic derived from Streptomyces achromogenes, one of […]. Its action of inducing insulin-dependent diabetes mellitus was reported for the first time in 1963 by Rakieten et al. (Rakieten N, Rakieten M L, Nadkarni M V, Cancer Chemother Rep 29:91-98, 1963). Since then, it has been used most commonly as a substance for inducing diabetes experimentally. The main mechanism of its diabetogenic action is ascribed to the destruction of P cells of the pancreas, thereby suppressing insulin secretion. In male Wistar rats (7-week-old), a solution of streptozotocin in 0.05 M citric acid-0.145 […] NaCl (pH 4.5) was administered into the caudal vein (50 mg/kg). The animals were individually reared, commencing immediately after administration of streptozotocin. After a lapse of 48 hours, the animals with blood glucose levels of 300 mg/dl or more were divided into a control group and an itaconic acid group (7 or 8 animals per group), and study was initiated. A rearing feed was given to the control group, and a rearing feed containing 1.38% of itaconic acid was given to the itaconic acid group, ad. lib. together with drinking water, and the animals were reared for 3 weeks.
During the 3-week rearing period, blood glucose, body weight, feed intake, and water intake were measured twice or 3 times weekly. Rats are nocturnal animals, and feeding mostly takes place at night. However, since their blood glucose fluctuates greatly depending on the elapsed time after eating, each measurement of blood glucose was made between 9:30 and 10:00 in the morning. Blood hemoglobin Alc was measured on the day after administration of streptozotocin and on the 19th day after start of the study. Hemoglobin Alc is hemoglobin having glucose attached thereto non-enzymatically, and is expressed as a percentage (%) of total hemoglobin. In humans, hemoglobin Alc is known to serve as an indicator of the mean value of blood glucose during the period from 1 to 3 months previously until blood sampling. In rats, the life of an erythrocyte is about half of that in humans, and hemoglobin Alc has been reported to reflect the mean value of blood glucose since 2 to 3 weeks previously.
The experiments were conducted in groups of 7 or 8 rats each, and the results were indicated as mean values±standard deviations. The blood glucose was expressed as changes in individual animals compared with the value found at the start of the study (grouping). The test for a significant difference was performed by the analysis of variance of data, followed by Student t-test. The level of significance was set at 0.05.

Where [6] appears, read: at completion of 3 weeks, FIG. 5.
[7] abbreviates: at completion of 3 weeks, p<0.05, FIG. 5.
[8] abbreviates: plasma after 3 weeks, 17-hour fast, mean ± SD, n=8.
The mark [9] stands for this setting: plasma after 3 weeks, 17-hour fast, mean ± SD, n=8, P < 0.05 vs control.

T1 sequence (P07953 whole entry): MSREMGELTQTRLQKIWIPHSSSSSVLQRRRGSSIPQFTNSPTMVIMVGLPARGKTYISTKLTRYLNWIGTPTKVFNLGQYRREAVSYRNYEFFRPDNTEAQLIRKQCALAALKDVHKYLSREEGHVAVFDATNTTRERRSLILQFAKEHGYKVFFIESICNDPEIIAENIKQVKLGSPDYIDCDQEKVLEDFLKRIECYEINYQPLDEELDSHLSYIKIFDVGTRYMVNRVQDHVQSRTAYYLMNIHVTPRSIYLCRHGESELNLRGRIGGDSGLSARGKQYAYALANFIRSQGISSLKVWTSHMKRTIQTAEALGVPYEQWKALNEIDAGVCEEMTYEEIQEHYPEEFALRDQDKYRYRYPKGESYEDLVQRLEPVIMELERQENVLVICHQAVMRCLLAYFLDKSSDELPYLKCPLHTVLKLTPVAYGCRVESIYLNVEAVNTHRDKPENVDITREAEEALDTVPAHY

`OCC(CO)N[C@H]1C[C@](O)(CO)[C@@H](O)[C@H](O)[C@H]1O` [voglibose]: in series [1], the “rapid increases (peaks) in postprandial blood glucose” value was “suppressing rapid increases (peaks) in postprandial blood glucose”.

On to `C=C(CC(=O)O)C(=O)O` [itaconic acid], for which the inhibition at 500 µM in series [2] is around 30%. Moreover, the feed intake entry in the series with Male SD rats [3] (3-week period, compared with the control group, FIG. 3) is “decreases in the feed intake were observed”. In addition, in the series with Male SD rats [3] (setting [6]), the “weight of the kidneys per 100 g of body weight” value is “not different between the groups” and the “weight of the livers per 100 g of body weight” value was “not different between the groups”. Further, in the series on Male SD rats [3] (setting [7]), the “weight of fat around the intestines per 100 g of body weight” value is given as “significantly decreased” and the “weight of fat around the kidneys per 100 g of body weight” value is on record as “significantly decreased”. Also, the weight gain result with Male SD rats [3] (from Day 9 onwards, p<0.05 against the control group, FIG. 2) is given as “significant suppression of weight gain”. In the series on Male SD rats [3] (setting [8]), this molecule yielded an ALP of 0.3 ± 0.1 IU/l, a Free cholesterol of 12.2 ± 2.0 mg/dL, a GOT of 65.0 ± 12.0 IU/l and a GPT of 13.0 ± 2.5 IU/l. In the series with Male SD rats [3] (setting [8]), this molecule returned an LDH of 276 ± 82 IU/l, a Total bilirubin of 0.19 ± 0.02 mg/dL and a Total cholesterol of 46.3 ± 7.1 mg/dL. Further, the Triglycerides in the series on Male SD rats [3] (plasma after 3 weeks, 17-hour fast, mean ± SD, n=8, P < 0.01 vs control) amounted to 20.9 ± 2.8 mg/dL. In the series with Male SD rats [3] (setting [9]), this molecule registered a Blood glucose of 149 ± 19 mg/dL and a Free fatty acids of 199 ± 75 mg/dL. The “initial rapid increase in blood glucose after glucose challenge” value with Male SD rats [4] (itaconic acid 500 mg/kg orally 30 min before glucose 4 g/kg, 30 minutes after challenge, FIG. 6) is reported as “significantly curbed”. For the same molecule, the “blood glucose late after glucose challenge” value with Male SD rats [4] (itaconic acid 500 mg/kg orally, after 180 minutes and 240 minutes, versus control group) is “significantly high”. In addition, in series [5] (Day 19, compared with the control group, FIG. 11), the “rise in blood hemoglobin Alc” value is given as “significant curbing of the rise”. The body weight entry in series [5] (feed containing 1.38% itaconic acid, 3 weeks, FIG. 8) is given as “not different between the groups”. Besides, in series [5] (feed containing 1.38% itaconic acid, 3 weeks, from Day 1 onwards, p<0.05 on Days 5 and 15, FIG. 7), the “rise in blood glucose (change from start of study)” value is listed as “suppression of the rise in blood glucose was observed”. Moreover, the feed intake entry in series [5] (from about Day 5 onwards, compared with the control group, FIG. 9) is reported as “decreases in feed intake were observed”.
